Experimental data reported in patent US20120004297A1, “Agent for alleviating vascular failure” (Naoki HIGASHI, priority 2005, published 2012).

Tests used:
[1] = tested on: Vascular endothelial cells (GM07373A); assay: Fluorescent intensity of vascular endothelial cells injured by hydrogen peroxide plus glucose, 24-wells plate, graphic analysis software method; assay type: cell-based, cattle; conditions: for Fluorescent intensity compared with the hydrogen peroxide plus glucose added system: sample further added to hydrogen peroxide plus glucose
Method: Vascular endothelial cells (GM07373A) subcultured with 10% FBS added EMEM were separated with a trypsin-EDTA solution. To 1.5 ml of the solution of the cells floated on 10% FBS added EMEM was added 9 ml of 10% FBS added EMEM and the resultant mixture was placed in a laboratory dish having a diameter of 9 cm and pre-cultivation was conducted at 37° C. for 3-4 days under an atmosphere of 5% carbon dioxide. Vascular endothelial cells in the culture broth were separated with a trypsin-EDTA solution and floated on 10% FBS added EMEM. 1 ml of the floated cell solution (number of cell: 0.7-0.9×10^5 cell/ml) was poured into each well of 24-wells plate and the main cultivation was conducted at 37° C. for 2 days under an atmosphere of 5% carbon dioxide. After removal of the culture medium, 0.4% FBS added EMEM was added in an amount of 500 μl per well to make the cells in starved state and cultivation was conducted at 37° C. over a night under an atmosphere of 5% carbon dioxide. A sample solution and 10 μl of an aqueous glucose solution (200 mg/ml) were added and cultivation was conducted at 37° C. for 2 hours under an atmosphere of 5% carbon dioxide. After removal of the culture medium, A Hanks' solution (a product of Nihon Pharmaceutical Co., Ltd.) was added to the wells in the amount of 1 ml per well for twice washing. After removal of the solution, a dye solution containing hydrogen peroxide (or a dye solution not containing hydrogen peroxide) was added in the amount of 300 μl per well and cultivation was conducted at 37° C. for 30 minutes under an atmosphere of 5% carbon dioxide. The dye solution was removed to measure the fluorescent intensity of the cell.
GM07373A is a cattle's aortic vascular endothelial cell strain, “Repository No. GM07373A” purchased from Coriel Human Genetic Cell Repository in U.S.A. The dye solution containing hydrogen peroxide was prepared by mixing 50 μg of the solution of fluorescent pigment (“C-6827”, a product of Molecular Probe Company) dissolved in 90 μl of DMSO with 9 ml of the Hanks' solution and adding 90 μl of 0.3% hydrogen peroxide thereto. Hydrogen peroxide was not added for the control test.
As a sample solution, there were used methanol solutions of astaxanthin (a product of Sigma Company) in 0.053 mg/ml and 0.0053 mg/ml, methanol solutions of α-tocopherol (a product of Wako Pure Chemical Industries, Ltd.) in 0.25 mg/ml and 0.025 mg/ml and methanol solutions of tocotrienol (a product of Sigma Company) in 0.25 mg/ml and 0.025 mg/ml. 10 μl of each of the sample solution was added to 500 μl of the culture medium.
The fluorescent intensity was measured at the optional three places under 100 times magnifications using a Leica stereoscopic fluorescence microscope “MZ FL III” (having a Leica macro fluorescence apparatus having a “GFP” attachment) and a filter set (name): GEP Plant fluorescence (GFP2) (excitation filter: 480/40 nm, absorption filter: 510 nm). Each of the pictures was captured by a CDD camera and converted into gray intensity % to measure the fluorescent intensity. The fluorescent intensity was measured for three places per well and the average value was calculated. Also, 3-4 wells were prepared for each kind of sample.
The system where astaxanthin has added is one where astaxanthin in addition to hydrogen peroxide plus glucose was added. The period of time for pre-cultivation was […] and the number of cells was 0.84×10^5 cell per well.
The tocotrienol or α-tocopherol added system is one where tocotrienol or α-tocopherol in addition to hydrogen peroxide plus glucose was added. The period of time for pre-cultivation was 3 days and the number of cells was 0.89×10^5 cell per well.

[2] = cited from earlier work
[3] = specimen 0.5 μg/ml added in addition to hydrogen peroxide plus glucose
[4] = specimen 5.0 μg/ml added in addition to hydrogen peroxide plus glucose

tocotrienol [Tocotorienol]
Fluorescent intensity compared with the hydrogen peroxide plus glucose added system [1]: less fluorescent intensity than the hydrogen peroxide plus glucose added system
Fluorescent intensity (%) [1, 3]: 4.35%
Fluorescent intensity (%) [1, 4]: 4.40%
Antioxidative action, times as strong as tocopherol ([2]; relative to tocopherol): about 50 times

Cc1c(C)c2c(c(C)c1O)CC[C@@](C)(CCC[C@H](C)CCC[C@H](C)CCCC(C)C)O2 [α-Tocopherol, α-tocopherol]
Fluorescent intensity compared with the hydrogen peroxide plus glucose added system [1]: less fluorescent intensity than the hydrogen peroxide plus glucose added system
Fluorescent intensity (%) [1, 3]: 4.74%
Fluorescent intensity (%) [1, 4]: 4.32%

CC1=C(/C=C/C(C)=C/C=C/C(C)=C/C=C/C=C(C)/C=C/C=C(C)/C=C/C2=C(C)C(=O)C(O)CC2(C)C)C(C)(C)CC(O)C1=O (stereo not drawn) [Astaxanthin, 3,3′-dihydroxy-β,β-carotene-4,4′-dione]
Fluorescent intensity (%) ([1]; astaxanthin 0.104 μg/ml added in addition to hydrogen peroxide plus glucose): 2.55%
Fluorescent intensity (%) ([1]; astaxanthin 1.04 μg/ml added in addition to hydrogen peroxide plus glucose): 1.93%
Fluorescent intensity compared with the hydrogen peroxide plus glucose added system [1]: less fluorescent intensity than the hydrogen peroxide plus glucose added system
Antioxidative action, times as strong as vitamin E ([2]; relative to vitamin E): about 1000 times
Antioxidative action, times as strong as β-carotene ([2]; relative to β-carotene): about 40 times
